Several values for one entry are separate records, joined by “and”; a condition that tells them apart may be missing. Equal entries are not always repeated. Entries after “also recorded” stand apart in the source; their conditions may differ. Where two headings read alike, the source gives them in different places.
Experiments:
in vitro = details: human
HIV-1SKI = assay: Analysis of replicated viral DNA (Hirt fractions), CEM-SS cells; type: cell-based
Protocol: Analysis of viral replication. CEM-SS cells (2×10^7) were infected with HIV-1SKI (MOI of I) for 45 minutes at 37 ° C. with gentle mixing. Following virus attachment, the cells were gently pelleted, washed twice and resuspended in complete tissue culture medium. The cells were then divided into aliquots, treated with various concentrations of drug and placed in T75 culture flasks. The cells were incubated at 37° C. for 18-20 hours and then harvested by centriguation. To extract nucleic acids for analysis of HIV-1 integration low- and high-molecular weight DNA were prepared from HIV-1 infected cells (untreated or treated with increasing concentrations of drug) according to the protocol originally described by Hirt (Hirt, B. J., J. Mol. Biol. 26:365-369 (1967)) and modified by Gowda et al., Gowda, et al., J. Immunol. 142:773-780 (1989).
DNA (300 ng), obtained from the low-molecular weight Hirt fractions, was used as the template in PCR analysis undergoing a 30 cycle amplification reaction using the conditions described by Steinkasserer et al. (Steinkasserer, et al., J. Virol. 69:814-824 (1995)). […] PCR products were separated by agarose gel electrophoresis and visualized by ethidium bromide staining.

Macrophages = type: cell-based, human
Protocol: (§1) In other experiments of the effect of T30177 on the viability of primary human PBMCs, PBLs and macrophages was determined using the trypan blue dye exclusion technique. Griffiths, B., IRL Press, p. 48 (1992), or by measuring the degree of [^3H]thymidine or [^3]leucine uptake in these cells (McGrath, M. S., et al. Proc. Natl. Acad. Sci. USA 86:2844-2848 (1989)).
(§2) Cytotoxicity Assays. The cytotoxicity of T30177 was determined using several different cell lines and primary human cells as described above. The cytotoxicity profile obtained for log phase growing cells was variable depending upon the cell line used, while the slower growing PBMCs, PBLs, and macrophages all tolerated the compound at concentrations exceeding 100 μM as monitored using the trypan blue exclusion, [^3H]thymidine uptake, or [^3H]leucine uptake techniques.

PBLs = type: cell-based, human
Protocol: as §1, §2

PBMC = type: cell-based, human
Protocol: as §1, §2

HIV-1IIIB = assay: Long term suppression assay, MT-4 cells; type: cell-based
[1] = target: T1, recombinant RT (HIV-1BH10) (Human immunodeficiency virus type 1 group M subtype B, UniProt P03366); assay: Reverse transcriptase enzyme inhibition assays; type: biochemical
T1 construct: Purified recombinant RT (HIV-1BH10) was obtained from the University of Alabama; purchased University of Alabama, Center for AIDS research (obtained from)

HIV-2 integrase = target: T2, HIV-2 integrase (Human immunodeficiency virus type 2 subtype A, UniProt P04584); assay: HIV-2 integrase 3′-processing assay; type: biochemical; details: HIV-1 DNA
T2 construct: A plasmid encoding the HIV-2 integrase was generously provided by Dr. R. H. A. Plasterk; made in house

HIV-1 integrase IN1-288 = target: T3, HIV-1 integrase IN1-288 (Human immunodeficiency virus type 1 group M subtype B, UniProt P12497); assay: Disintegration assay, wild-type integrase; type: biochemical
T3 construct: purchased gift of Drs; T. Jenkins and R. Craigie, NIDDK, NIH (not bought; the expression system was also provided)

[2] = set-up: species or system HIV-positive human patients; details: human, in vivo
Protocol: Four HIV-infected patients/group were dosed with AR177 at 0.75 mg/kg and […], and two HIV-infected patients were dosed so far with AR177 at 3.0 mg/kg by intravenous infusion over two hours.
Blood was collected in EDTAp coated tubes at 0.25, 05, 1, 2, 2.05, 3, 3.5, 4, 6, 8, 11, 14, 26, 48, 98, and 122 hours following initiation of drug administration. Plasma was obtained by low speed centrifugation of the blood, and was stored frozen until analyzed by HPLC for AR177 concentration. The concentration of AR177 was determined in patient plasma using a validated anion-exchange HPLC method at the Division of Clinical Pharmacy of the University of California, San Francisco. This method has a limit of quantitation of 15 ng/mL in human plasma.
Pharmacokinetic parameters were calculated using PKAnalyst software (MicroMath, Salt Lake City, Utah). The pharmacokinetic data best fit a two compartment model for all of the patients. The alpha and beta half-lives were almost identical in each of the patients, based on the software interpretation of the AR177 plasma concentration versus time plot (FIGS. 56-59). For this reason, only one half-life is reported.

T2 sequence (P04584 1172-1464): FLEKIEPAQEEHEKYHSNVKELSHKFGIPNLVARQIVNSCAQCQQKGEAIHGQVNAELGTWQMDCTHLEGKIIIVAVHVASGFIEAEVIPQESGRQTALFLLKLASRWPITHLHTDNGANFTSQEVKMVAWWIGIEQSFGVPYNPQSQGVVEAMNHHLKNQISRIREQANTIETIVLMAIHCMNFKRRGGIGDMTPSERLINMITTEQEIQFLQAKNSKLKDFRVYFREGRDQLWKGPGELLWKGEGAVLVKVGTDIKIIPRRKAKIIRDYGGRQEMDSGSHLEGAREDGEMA

Compound: Cc1cn([C@H]2C[C@H](N=[N+]=[N-])[C@@H](CO)O2)c(=O)[nH]c1=O [AZT, 3′-azido-3′-deoxythymidine]
- CC50 (in vitro): ~10 µM

Compound: 5′-gtggtgggtgggtgggt-3′ [T30177] (GTGGTGGGTGGGTGGGT; phosphorothioate termini, further chemistry not given here)
- extent of viral replication (PCR of Hirt DNA) (HIV-1SKI): up to an including the production of 2-LTR circles
- IC50 virus-induced cytopathogenicity (Punta Toro virus; Punta Toro virus): >200 µg/mL
- MCC minimum concentration altering normal cell morphology (Punta Toro virus; Punta Toro virus assay): >200 μg/mL
- IC50 virus-induced cytopathogenicity (Influenza A (H3N2); Influenza A (H3N2)): >125 µg/mL
- MCC minimum concentration altering normal cell morphology (Influenza A (H3N2); Influenza A (H3N2) assay): >200 μg/mL
- Body Weights (2.5 mg/kg, Day 7): 3.1 ± 0.6
- Body Weights (2.5 mg/kg, Day 14): 3.2 ± 0.6
- Body Weights (2.5 mg/kg, Day 21): 3.2 ± 0.6
- Body Weights (2.5 mg/kg, Day 25): 3.1 ± 0.6
- Body Weights (2.5 mg/kg, Prestudy): 3.1 ± 0.5
- Body Weights (10 mg/kg, Day 7): 3.2 ± 0.7
- Body Weights (10 mg/kg, Day 14): 3.3 ± 0.7
- Body Weights (10 mg/kg, Day 21): 3.3 ± 0.7
- Body Weights (10 mg/kg, Day 25): 3.2 ± 0.7
- Body Weights (10 mg/kg, Prestudy): 3.2 ± 0.7
- treatment-related clinical sign (40 mg/kg): discoloration around the eyes in three high-dose animals
- Body Weights (40 mg/kg, Day 7): 3.2 ± 0.6
- Body Weights (40 mg/kg, Day 14): 3.3 ± 0.6
- Body Weights (40 mg/kg, Day 21): 3.2 ± 0.6
- Body Weights (40 mg/kg, Day 25): 3.1 ± 0.6
- Body Weights (40 mg/kg, Prestudy): 3.2 ± 0.6
- mortality (2.5, 10, 40 mg/kg every other day, 12 doses): No animals died
- body weight (12 doses): no effects on body weight
- ECG recordings (cynomolgus monkey, in vivo): No abnormalities

Compound: 5′-gtggtgggtgggtgggt-3′ (GTGGTGGGTGGGTGGGT; phosphorothioate termini, further chemistry not given here) [T30177]
- CC50 (Macrophages): > 100 µM
- TC25 (Macrophages): >100 µM
- TC95 (Macrophages): >100 µM
- CC50 (PBLs): > 100 µM
- TC25 (PBLs): >100 µM
- TC95 (PBLs): >100 µM
- CC50 (PBMC): > 100 µM
- TC25 (PBMC): >100 µM
- TC95 (PBMC): >100 µM
- viral DNA (PCR) 11 days after removal of drug (HIV-1IIIB): unable to detect the presence of viral DNA; also recorded: no detectable viral cDNA
- protection of treated cells from reinfection with HIV-1IIIB (HIV-1IIIB; 100-fold over IC50, 4 days): no protection of cells from the second round of viral infection
- IC50 ([1]; depending upon the template, read-out: 50% inhibitory value, viral reverse transcriptase): 1 to 10 µM
- IC50 ([1]; template gapped duplex DNA, duplicate experiments, read-out: IC50 recombinant HIV-1 RT): > 5 µM and 8 µM and 10 µM
- IC50 (HIV-2 integrase): 0.09 µM
- IC50 (HIV-1 integrase IN1-288): 0.27 µM
- initial volume of distribution ([2]; 0.75 mg/kg): 0.16 ± 0.05 L/kg
- steady-state volume of distribution ([2]; 0.75 mg/kg): 0.14 ± 0.05 L/kg
- initial volume of distribution ([2]; 3 mg/kg): 0.08 ± 0.00 L/kg
- steady-state volume of distribution ([2]; 3 mg/kg): 0.05 ± 0.03 L/kg
- IC50 virus-induced cytopathogenicity (Vaccinia virus; Vaccinia virus): >200 µg/mL
- MCC minimum concentration altering normal cell morphology (Vaccinia virus; Vaccinia virus assay): 400 μg/mL
- IC50 virus-induced cytopathogenicity (Polio virus-1; Polio virus-1): >200 µg/mL
- MCC minimum concentration altering normal cell morphology (Polio virus-1; Polio virus-1 assay): ≧400 μg/mL
